Measured values published in ChEMBL document CHEMBL1143572, “Virtual screening workflow development guided by the "receiver operating characteristic" curve approach. Application to high-throughput docking on metabotropic glutamate receptor subtype 4” (J Med Chem, 2005).
pEC50: −log10 of the molar value.

Experiments:
[1] = target: T1, Metabotropic glutamate receptor 4 (Rattus norvegicus, UniProt P31423); experiment: Stimulation of [3H]phosphatidylinositol accumulation by rat Metabotropic glutamate receptor 4 co-expressed with Gqi9 protein in HEK 293 cells; Active; assay type: functional, cell-based, HEK293
T1 sequence (P31423 whole entry): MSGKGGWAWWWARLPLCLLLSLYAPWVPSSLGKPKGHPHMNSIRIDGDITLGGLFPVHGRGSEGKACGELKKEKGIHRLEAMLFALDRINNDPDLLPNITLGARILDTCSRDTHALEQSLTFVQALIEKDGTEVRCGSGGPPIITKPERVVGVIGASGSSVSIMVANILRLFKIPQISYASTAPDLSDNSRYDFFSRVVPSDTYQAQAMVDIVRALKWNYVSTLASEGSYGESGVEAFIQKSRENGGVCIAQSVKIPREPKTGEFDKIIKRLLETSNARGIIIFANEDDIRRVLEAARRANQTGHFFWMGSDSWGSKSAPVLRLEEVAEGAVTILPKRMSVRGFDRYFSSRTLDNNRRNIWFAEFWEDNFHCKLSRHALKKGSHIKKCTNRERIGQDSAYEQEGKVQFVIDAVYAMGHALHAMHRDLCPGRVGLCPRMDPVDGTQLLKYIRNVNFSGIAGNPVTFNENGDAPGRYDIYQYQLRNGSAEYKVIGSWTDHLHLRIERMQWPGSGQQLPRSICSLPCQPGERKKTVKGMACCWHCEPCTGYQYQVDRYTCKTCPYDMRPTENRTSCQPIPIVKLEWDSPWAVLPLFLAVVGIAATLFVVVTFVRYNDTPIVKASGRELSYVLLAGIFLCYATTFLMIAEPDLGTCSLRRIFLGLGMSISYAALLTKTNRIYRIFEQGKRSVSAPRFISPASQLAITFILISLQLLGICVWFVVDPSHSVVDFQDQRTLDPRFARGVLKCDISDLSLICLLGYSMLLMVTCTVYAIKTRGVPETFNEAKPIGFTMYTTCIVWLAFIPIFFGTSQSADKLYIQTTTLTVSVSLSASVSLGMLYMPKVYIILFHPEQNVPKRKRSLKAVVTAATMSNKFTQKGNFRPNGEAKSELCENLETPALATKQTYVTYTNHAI

[2] = target: T1, Metabotropic glutamate receptor 4; experiment: Stimulation of [3H]phosphatidylinositol accumulation by rat Metabotropic glutamate receptor 4 co-expressed with Gqi9 protein in HEK 293 cells; Inactive; assay type: functional, cell-based, HEK293
[3] = target: T1, Metabotropic glutamate receptor 4; experiment: Stimulation od [3H]phosphatidylinositol accumulation by rat Metabotropic glutamate receptor 4 co-expressed with Gqi9 protein in HEK 293 cells; assay type: functional, cell-based, HEK293
[4] = target: T1, Metabotropic glutamate receptor 4; experiment: Effective concentration against Metabotropic glutamate receptor 4
[5] = target: Metabotropic glutamate receptor 4 (Rattus norvegicus, UniProt P31423, D309A); experiment: Effective concentration against D309A mutant Metabotropic glutamate receptor 4
Sequence of Metabotropic glutamate receptor 4 (Rattus norvegicus, UniProt P31423, D309A) (P31423 whole entry, looked up, stated change not applied): as the sequence (P31423 whole entry) above

| SMILES | pEC50 [1] | pEC50 [2] | also measured |
| --- | --- | --- | --- |
| N[C@@]1(C(=O)O)C[C@H](C(=O)O)[C@H](C(=O)O)C1 | > 4.00 |  |  |
| N[C@@]1(C(=O)O)CC[C@H](C(=O)O)C1 |  | < 4.00 |  |
| N[C@@]1(C(=O)O)CC[C@@H](C(=O)O)C1 |  | < 4.00 |  |
| N[C@H](Cn1oc(=O)[nH]c1=O)C(=O)O |  | < 4.00 |  |
| N[C@@]1(C(=O)O)CC[C@H]2[C@H](C(=O)O)[C@H]21 [EGLUMETAD] |  | < 4.00 |  |
| NC1(C(=O)O)CC2CC1C2C(=O)O (centres undefined) | > 4.00 |  |  |
| N[C@@H](CCP(=O)(O)O)C(=O)O | > 4.00 |  | pEC50 [4]: 6.70; pEC50 [5]: 3.89 |
| N[C@H](C(=O)O)c1cc(O)cc(O)c1 |  | < 4.00 |  |
| NC1(C(=O)O)C[C@H](C(=O)O)[C@@H](C(=O)O)C1 | > 4.00 |  |  |

The next lines start with results.

| pEC50 [1] | pEC50 [2] | SMILES | also measured |
| --- | --- | --- | --- |
| > 4.00 |  | N[C@H](C(=O)O)[C@@H]1C[C@H]1C(=O)O |  |
|  | < 4.00 | N[C@@]1(C(=O)O)CN[C@@H](C(=O)O)C1 |  |
| > 4.00 |  | N[C@H](CCC(=O)O)C(=O)O [D-GLUTAMATE] |  |
|  | < 4.00 | C[C@@H](C[C@@H](N)C(=O)O)C(=O)O |  |
|  | < 4.00 | N[C@H](C(=O)O)C12CC(C(=O)O)(C1)C2 | pEC50 [3]: < 3.00 |
|  | < 4.00 | N[C@H](C(=O)O)c1ccc(C(=O)O)c(O)c1 |  |
| > 4.00 |  | N[C@H](C(=O)O)c1ccc(P(=O)(O)O)cc1 |  |
| > 4.00 |  | N[C@H](C(=O)O)c1ccc(C(=O)O)c(C(=O)O)c1 |  |
|  | < 4.00 | C=C(C[C@@H](N)C(=O)O)C(=O)O |  |
| > 4.00 |  | N[C@@H](CCS(=O)(=O)O)C(=O)O |  |
| > 4.00 |  | N[C@@H](COP(=O)(O)O)C(=O)O [DEXFOSFOSERINE] |  |
|  | < 4.00 | N[C@@H](CCn1oc(=O)[nH]c1=O)C(=O)O |  |
